Reference: patent publication US5041567A, “Antibacterial monic acid derivatives” (Beecham Group plc, priority 1982, dated 1991)
In brackets after ≈: the same amount, converted by molar mass.

Columns and labels:
[1] = tested on: Haemophilus influenzae Wy21; assay: MIC against human bacteria in vitro; assay type: cell-based; details: Haemophilus influenzae Wy21; 5% chocolated horse blood agar, 18 hours; read-out: MIC
[2] = tested on: M. bovigenitalium ATCC 14173; assay: MIC against mycoplasma in vitro; assay type: cell-based; details: 144 h
[3] = tested on: M. hyorhinis ATCC 25021; assay: MIC against mycoplasma in vitro; assay type: cell-based; details: Mesomycoplasma hyorhinis, ATCC25021, 144 h; M. hyorhinis ATCC 25021; 6 days, 37° C.; read-out: MIC
[4] = tested on: Past. multocida PA2; assay: MIC against veterinary bacteria in vitro; details: Pasteurella multocida, PA2, 18 h
Experimental: (§1) The activity of the compounds of the Examples against various veterinarily important bacteria, was assayed in vitro using two-fold serial dilutions in Diagnostic Sensitivity Test Agar inoculated with 10^4 organisms.

[5] = tested on: Sarcina lutea 8340; assay: MIC against human bacteria in vitro; assay type: cell-based; details: Micrococcus luteus; Sarcina lutea 8340; 5% chocolated horse blood agar, 18 hours; read-out: MIC
[6] = tested on: S. typhimurium S18; assay: MIC against veterinary bacteria in vitro; details: Salmonella enterica, TYPHIMURIUM, 18 h
Experimental: as §1

[7] = tested on: S. dublin S7; assay: MIC against veterinary bacteria in vitro; details: Salmonella enterica, S7, 18 h
Experimental: as §1

[8] = tested on: M. suipneumoniae HK(2); assay: MIC against mycoplasma in vitro; assay type: cell-based; details: Mesomycoplasma hyopneumoniae, 144 h
[9] = tested on: M. suipneumoniae LABER; assay: MIC against mycoplasma in vitro; assay type: cell-based; details: Mesomycoplasma hyopneumoniae, 144 h; M. suipneumoniae LABER; 6 days, 37° C.; read-out: MIC
[10] = tested on: Strep. pyogenes R80/421-A; assay: MIC against human bacteria in vitro; assay type: cell-based; details: Streptococcus pyogenes; Strep. pyogenes R80/421-A; 5% chocolated horse blood agar, 18 hours; read-out: MIC
[11] = tested on: M. hyorhinis ATCC 23234; assay: MIC against mycoplasma in vitro; assay type: cell-based; details: Mesomycoplasma hyorhinis, ATCC23234, 144 h; M. hyorhinis ATCC 23234; 6 days, 37° C.; read-out: MIC
[12] = tested on: Erysipelothrix rhusiopathiae NCTC 8163; assay: MIC against veterinary bacteria in vitro; details: Erysipelothrix rhusiopathiae, NCTC8163, 18 h
Experimental: as §1

[13] = tested on: Strep. agalactiae 2788-B; assay: MIC against human bacteria in vitro; assay type: cell-based; details: Streptococcus agalactiae; Strep. agalactiae 2788-B; 5% chocolated horse blood agar, 18 hours; read-out: MIC
[14] = tested on: Bacillus subtilis 6633; assay: MIC against human bacteria in vitro; assay type: cell-based; details: Bacillus subtilis 6633; 5% chocolated horse blood agar, 18 hours; read-out: MIC
[15] = tested on: M. suipneumoniae NB12; assay: MIC against mycoplasma in vitro; assay type: cell-based; details: Mesomycoplasma hyopneumoniae, 144 h; M. suipneumoniae NB12; Friis broth, 0.9% agarose, 6 days, 37° C.; read-out: MIC
[16] = tested on: Strep. uberis SPU1; assay: MIC against veterinary bacteria in vitro; details: Streptococcus uberis, SPU1, 18 h
Experimental: as §1

[17] = tested on: E. coli NCTC 10418; assay: MIC against human bacteria in vitro; assay type: cell-based; details: Escherichia coli, NCTC10418; E. coli NCTC 10418; agar with 5% chocolated horse blood, 18 hours, 37° C.; read-out: MIC
[18] = tested on: Corynebacterium xerosis 9755; assay: MIC against human bacteria in vitro; assay type: cell-based; details: Corynebacterium xerosis 9755; 5% chocolated horse blood agar, 18 hours; read-out: MIC
[19] = tested on: M. suipneumoniae MS 16; assay: MIC against mycoplasma in vitro; assay type: cell-based; details: Mesomycoplasma hyopneumoniae, MS16, 144 h; M. suipneumoniae MS 16; 6 days, 37° C.; read-out: MIC
[20] = tested on: K. aerogenes A; assay: MIC against human bacteria in vitro; assay type: cell-based; details: Klebsiella aerogenes; K. aerogenes A; 5% chocolated horse blood agar, 18 hours; read-out: MIC
[21] = tested on: Staph. aureus 152 (pen. sens); assay: MIC against veterinary bacteria in vitro; details: Staphylococcus aureus, 18 h
Experimental: as §1

[22] = tested on: Strep. spp. 64/848-C; assay: MIC against human bacteria in vitro; assay type: cell-based; details: Strep. spp. 64/848-C; 5% chocolated horse blood agar, 18 hours; read-out: MIC
[23] = tested on: M. suipneumoniae ATCC 25095; assay: MIC against mycoplasma in vitro; assay type: cell-based; details: Mesomycoplasma hyopneumoniae, ATCC25095, 144 h; M. suipneumoniae ATCC 25095; 6 days, 37° C.; read-out: MIC
[24] = tested on: Ps. aeruginosa NCTC 10662; assay: MIC against human bacteria in vitro; assay type: cell-based; details: Pseudomonas aeruginosa, NCTC10662; Ps. aeruginosa NCTC 10662; 5% chocolated horse blood agar, 18 hours; read-out: MIC
[25] = tested on: Staph. aureus Russell; assay: MIC against human bacteria in vitro; assay type: cell-based; details: Staphylococcus aureus; Staph. aureus Russell; 5% chocolated horse blood agar, 18 hours; read-out: MIC
[26] = tested on: Corynebacterium pyogenes CY1; assay: MIC against veterinary bacteria in vitro; details: CY1, 18 h
Experimental: as §1

[27] = tested on: E. coli ESS; assay: MIC against human bacteria in vitro; assay type: cell-based; details: Escherichia coli; E. coli ESS; 5% chocolated horse blood agar, 18 hours; read-out: MIC
[28] = tested on: Staph. aureus W2827; assay: MIC against human bacteria in vitro; assay type: cell-based; details: Staphylococcus aureus; Staph. aureus W2827; 5% chocolated horse blood agar, 18 hours; read-out: MIC
[29] = tested on: M. suipneumoniae TAM 6N; assay: MIC against mycoplasma in vitro; assay type: cell-based; details: Mesomycoplasma hyopneumoniae, TAM6N, 144 h
[30] = tested on: Staph. aureus Oxford; assay: MIC against veterinary bacteria in vitro; details: Staphylococcus aureus, 18 h
Experimental: as §1

[31] = tested on: M. suipneumoniae Str. 11; assay: MIC against mycoplasma in vitro; assay type: cell-based; details: Mesomycoplasma hyopneumoniae, 144 h; M. suipneumoniae Str. 11; 6 days, 37° C.; read-out: MIC
[32] = tested on: Strep. faecalis I; assay: MIC against human bacteria in vitro; assay type: cell-based; details: Enterococcus faecalis; Strep. faecalis I; 5% chocolated horse blood agar, 18 hours; read-out: MIC
[33] = tested on: Strep. dysgalactiae SPD1; assay: MIC against veterinary bacteria in vitro; details: Streptococcus dysgalactiae, SPD1, 18 h
Experimental: as §1

How did the MIC [1] turn out when `C/C(=C\c1ncc(-c2cccc(S(C)(=O)=O)c2)o1)C[C@@H]1OC[C@H](C[C@@H]2O[C@H]2[C@@H](C)[C@H](C)O)[C@@H](O)[C@H]1O` [Example 23, 5-m-Methylsulphonylphenyl-2-(1-normon-2-yl) oxazole A] was run?
Its MIC is 1 µg/mL (≈ 1.92 µM).

And the MIC [2]?
Its MIC is 0.1 µg/mL (≈ 0.192 µM).

What about the MIC [3] of the same compound?
The MIC was 0.5 µg/mL (≈ 0.959 µM).

And the MIC [4]?
Its MIC is 2.5 µg/mL (≈ 4.79 µM).

And the MIC [5]?
The MIC was greater than 128 µg/mL.

And the MIC [6]?
The MIC was greater than 80 µg/mL.

What about the MIC [7] of the same compound?
The MIC was greater than 80 µg/mL.

What about the MIC [8] of the same compound?
The MIC was 1 µg/mL (≈ 1.92 µM).

And the MIC [9]?
The MIC was 0.5 µg/mL (≈ 0.959 µM).

And the MIC [10]?
The MIC was 0.5 µg/mL (≈ 0.959 µM).

What about the MIC [11] of the same compound?
The MIC was 0.5 µg/mL (≈ 0.959 µM).

And the MIC [12]?
The MIC was greater than 80 µg/mL.

And the MIC [13]?
Its MIC is 2 µg/mL (≈ 3.83 µM).

What about the MIC [14] of the same compound?
The MIC was 2 µg/mL (≈ 3.83 µM).

What about the MIC [15] of the same compound?
Its MIC is 0.5 µg/mL (≈ 0.959 µM).

And the MIC [16]?
Its MIC is 0.625 µg/mL (≈ 1.2 µM).

And the MIC [17]?
Its MIC is greater than 64 µg/mL.

What about the MIC [18] of the same compound?
The MIC was greater than 128 µg/mL.

And the MIC [19]?
Its MIC is 0.5 µg/mL (≈ 0.959 µM).

And the MIC [20]?
The MIC was greater than 64 µg/mL.

And the MIC [21]?
The MIC was 2.5 µg/mL (≈ 4.79 µM).

What about the MIC [22] of the same compound?
The MIC was 2 µg/mL (≈ 3.83 µM).

And the MIC [23]?
The MIC was 0.5 µg/mL (≈ 0.959 µM).

What about the MIC [24] of the same compound?
The MIC was greater than 64 µg/mL.

What about the MIC [25] of the same compound?
Its MIC is 16 µg/mL (≈ 30.7 µM).

What about the MIC [26] of the same compound?
Its MIC is greater than 80 µg/mL.

And the MIC [27]?
Its MIC is 4 µg/mL (≈ 7.67 µM).

What about the MIC [28] of the same compound?
The MIC was 16 µg/mL (≈ 30.7 µM).

And the MIC [29]?
Its MIC is 1 µg/mL (≈ 1.92 µM).

And the MIC [30]?
Its MIC is 10 µg/mL (≈ 19.2 µM).

What about the MIC [31] of the same compound?
The MIC was 0.5 µg/mL (≈ 0.959 µM).

What about the MIC [32] of the same compound?
Its MIC is greater than 128 µg/mL.

And the MIC [33]?
Its MIC is 1.25 µg/mL (≈ 2.4 µM).
